Assay [1] concerns NFκB. Briefly: NFκB luciferase reporter assay in TNF-α stimulated A549 cells (E-selectin promoter). In kind it is cell-based. To be noted: % inhibition or IC50 in μM; for IC50: Homo sapiens. The procedure:
A549 cells were stably transfected with an E-selectin promoter containing three NFκB binding sites driving luciferase expression. For the assay, 5×10^4 cells were incubated in 96 well round bottom plates overnight in 100 μL of 10% FBS/RPMI medium at 37° C. in a 5% CO2 atmosphere. The following morning the medium was removed and 90 μL of a 1% DMSO solution of test compound solution was added and the plates incubated for 1 hour. 10 μL of TNF-α was added at its EC50 (normally 6 ng/mL FAC) to each well and the plate incubated for 5 hours. 100 μL of luciferase buffer was added, and after 10 minutes luminescence was read on a Wallac Victor 1420 Multilabel Counter. The data obtained from the Wallac Victor was converted into % inhibition data or IC50 measured in μM.
(In general: In a reporter assay the amount or activity of a reporter protein is the signal.)

The subject of assay [2] is A549 cells. Nature of the assay: Inhibition of TNF-α induced apoptosis in A549 cells (crystal violet). It is filed as cell-based. To be noted: Homo sapiens, percent inhibition at 20 μM or IC50 in μM. The procedure:
The protocol used for determining inhibition of apoptosis in A549 cells was adopted from a system previously described (K. Last-Barney et al., J. of Immunology 141:527-530, 1988). Briefly, 10^5 cells in 200 μL 10% FBS/RPMI antibiotic containing culture medium were plated into 96 well round bottom culture plates and allowed to adhere for 6 hours at 37° C. in a 5% CO2 atmosphere. The media was removed and 100 μL of RPMI+1 μg/mL actinomycin-D was added to each well, followed by 90 μL of test compound solution in 1% DMSO. This was incubated for 1 hour 10 AL TNF-α was added at its EC50 (normally 1 ng/mL FAC) and the plates incubated for 18 hours. The media was aspirated from the plates and 100 μL of 0.5% crystal violet in 20% methanol was added. After 10 minutes the plates were rinsed with water to remove excess stain, air dried, and read on a Spectramax at a wavelength of 590 nm. The data obtained from the Spectramax was converted into percent inhibition data at a concentration of 20 μM or IC50 measured in μM.

Assay [3] has as its target T1, CXCR2 (Homo sapiens, UniProt P25025).
T1 construct: host or cells: CHO cells
T1 sequence (P25025 1-360): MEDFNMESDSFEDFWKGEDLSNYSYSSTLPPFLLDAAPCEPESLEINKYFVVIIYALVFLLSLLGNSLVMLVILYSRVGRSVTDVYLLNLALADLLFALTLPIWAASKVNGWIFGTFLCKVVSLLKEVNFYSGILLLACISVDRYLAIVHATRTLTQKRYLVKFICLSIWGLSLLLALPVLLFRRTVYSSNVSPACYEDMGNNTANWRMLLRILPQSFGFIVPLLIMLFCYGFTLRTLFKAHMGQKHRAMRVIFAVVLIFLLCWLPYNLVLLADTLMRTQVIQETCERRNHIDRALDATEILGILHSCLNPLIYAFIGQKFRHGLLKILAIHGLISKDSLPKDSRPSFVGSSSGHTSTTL
Nature of the assay: CXCR2 radioligand binding assay with 125I labeled IL-8. To be noted: human recombinant CHO cells; for CXCR2 2 inh.: percent inhibition or IC50; for IC50: percent inhibition or IC50, read-out: CXCR2 2 inh. The text has this:
(§1) This assay is a radioligand binding assay in human recombinant CHO cells with ^125I labeled IL-8 as the ligand. The assay procedure is described in Ahuja, S. K.; Murphy, P. M;.

The target of assay [4] is T2, CXCR1 (Homo sapiens, UniProt P25024).
T2 construct: host or cells: CHO cells
T2 sequence (P25024 1-350): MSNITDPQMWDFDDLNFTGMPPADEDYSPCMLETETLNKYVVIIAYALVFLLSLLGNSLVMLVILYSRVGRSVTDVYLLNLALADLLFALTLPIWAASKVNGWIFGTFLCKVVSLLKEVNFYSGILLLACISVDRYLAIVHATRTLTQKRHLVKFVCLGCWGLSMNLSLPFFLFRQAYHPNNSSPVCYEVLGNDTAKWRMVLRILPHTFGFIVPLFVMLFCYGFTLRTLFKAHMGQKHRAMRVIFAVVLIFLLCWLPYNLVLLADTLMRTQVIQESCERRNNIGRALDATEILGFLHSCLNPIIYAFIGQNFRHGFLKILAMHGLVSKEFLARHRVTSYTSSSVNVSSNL
Nature of the assay: CXCR1 radioligand binding assay with 125I labeled IL-8. Particulars: human recombinant CHO cells; for IC50: percent inhibition or IC50, read-out: CXCR1 inh.; for CXCR1 inh.: percent inhibition or IC50.
Excerpt: as §1

Where [5] appears, read: TNF-α stimulated A549 cells, E-selectin promoter luciferase, given as class symbols, read-out: NFκB inh.
Setting [6] is: inhibition of TNF-α induced apoptosis in A549 cells, given as class symbols, read-out: Apopt inh.
The mark [7] stands for this setting: A549 cells with NFκB luciferase reporter, TNF-α at its EC50, 5 hours.
The mark [8] stands for this setting: A549 cells with NFκB luciferase reporter, TNF-α at its EC50, 5 hours, read-out: NFkB inh.
Where [9] appears, read: A549 cells, actinomycin-D + TNF-α at its EC50, 18 hours, read-out: Apopt. Inh.

Read-outs that look alike come from different tables or passages of the source. A value given as a limit tells only on which side of the number the result lay.

The results in this text go back to patent US6906046B2 (Celltech R & D Inc., priority 2000, dated 2005).

For `CCCOC(=O)[C@H]1[C@H](C(=O)OCC[Si](C)(C)C)C2CC(NCc3ccc(C)cc3)[C@H]1c1cc(O)ccc12` (stereo partly shown) [Example 84], the figures for the IC50 in assay [1] (setting [5]) and in assay [2] (setting [6]) were 10 to 50 µM and below 10 µM, respectively.
As for `CCCOC(=O)[C@H]1[C@H](C(=O)OCC[Si](C)(C)C)C2CC(=O)[C@H]1c1ccccc12` [Example 52], the IC50 in assay [1] (setting [5]) lay within 10 to 50 µM. Besides, in assay [2] (setting [6]), the inhibition at 20 µM lay in the range of 6 to 64%.
For `CCCOC(=O)C1C(C(=O)OCC[Si](C)(C)C)C2C[C@H](Nc3ccccc3)[C@H]1c1cc(O)ccc12` (stereo partly shown) [Example 114], the NFkB inh. result in assay [1] (setting [7]) is reported as “* (refers to percent inhibition from 6% to 64%)”. Besides, the “CXCR2 2 inh.” value in assay [3] is reported as “* (refers to percent inhibition from 10-36%)”.
As for `CCCOC(=O)[C@H]1[C@H](C(=O)OCC[Si](C)(C)C)C2CC(O)[C@H]1c1cc(O)ccc12` (stereo partly shown) [Example 82], the IC50 in assay [1] (setting [5]) is 10 to 50 µM; in assay [2] (setting [6]) it was below 10 µM.
For `CCCOC(=O)C1C(C(=O)OCC[Si](C)(C)C)C2C/C(=N\Nc3ccccc3Br)[C@H]1c1cc(O)ccc12` (stereo partly shown) [Example 112], in assay [1] (setting [7]), the NFkB inh. entry is recorded as “* (refers to percent inhibition from 6% to 64%)”. For the same compound, the IC50 in assay [4] was 10 to 50 µM; in assay [3], below 10 µM.
Take `CCCOC(=O)C1C(C(=O)OCC[Si](C)(C)C)C2C[C@@H](Nc3ccccc3)[C@H]1c1cc(O)ccc12` (stereo partly shown) [Example 115]: the NFkB inh. result in assay [1] (setting [7]) is listed as “* (refers to percent inhibition from 6% to 64%)”. In addition, the CXCR1 inh. result in assay [4] is on record as “* (refers to percent inhibition from 10-36%)”. Besides, the “CXCR2 2 inh.” value in assay [3] is listed as “* (refers to percent inhibition from 10-36%)”.
As to `CCCOC(=O)[C@H]1[C@H](C(=O)OCC[Si](C)(C)C)C2CC3(OCCO3)[C@H]1c1cc(O)ccc12` [Example 97], in assay [1] (setting [5]), the IC50 was in the range of 10 to 50 µM. The inhibition at 20 µM in assay [2] (setting [6]) lay within 6 to 64%.
Turning to `CCCOC(=O)C1C(C(=O)OCC[Si](C)(C)C)C2C/C(=N\Nc3ccccc3)[C@H]1c1cc(O)ccc12` (stereo partly shown) [Example 111], the IC50 is 10 to 50 µM in assay [1] (setting [8]), below 10 µM in assay [2] (setting [9]), below 10 µM in assay [4] and below 10 µM in assay [3].
Consider `CCCOC(=O)[C@H]1[C@H](C(=O)OCC[Si](C)(C)C)C2C/C(=N\OCc3nnsc3Cl)[C@H]1c1cc(O)ccc12` (racemic) [Example 71, 11-(5-Chloro-[1,2,3]thiadiazol-4-ylmethoxyimino)-4-hydroxy-tricyclo[6.2.2.0^2,7]dodeca-2(7),3,5-triene-9,10-dicarboxylic acid 10-propyl ester 9-(2-trimethylsilanyl-ethyl) ester], for which the IC50 is 10 to 50 µM in assay [1] (setting [5]) and below 10 µM in assay [2] (setting [6]).
With `CCCCCN(CCCCC)C(=O)[C@@H]1[C@H](C(=O)N(C)CC(=O)NCc2c(OC)cc(OC)cc2OC)C2CC(=O)[C@H]1c1cc(OCc3ccc(C(=O)N4CCC[C@H]4C(=O)N(C)C)cc3)ccc12` [Example 5], in assay [2] (setting [6]), the IC50 lay in the range of 10 to 50 µM.
As for `CCCOC(=O)C1C(C(=O)OCC[Si](C)(C)C)C2C/C(=N\Oc3ccccc3)[C@H]1c1cc(O)ccc12` (stereo partly shown) [Example 116], the values for the IC50 in assay [1] (setting [8]) and in assay [2] (setting [9]) were 10 to 50 µM and below 10 µM, respectively. Further, the CXCR1 inh. result in assay [4] was “* (refers to percent inhibition from 10-36%)”. Further, in assay [3], the “CXCR2 2 inh.” value is recorded as “* (refers to percent inhibition from 10-36%)”.
In the case of `CCCOC(=O)[C@H]1[C@H](C(=O)OCC[Si](C)(C)C)C2C/C(=N\NCCO)[C@H]1c1cc(O)ccc12` [Example 56], the IC50 in assay [2] (setting [6]) was below 10 µM.
Regarding `C[Si](C)(C)CCOC(=O)C1C2CC(=O)[C@@H](c3cc(O)ccc32)C1C(=O)OCC[Si](C)(C)C` (stereo partly shown) [Example 113], the NFkB inh. result in assay [1] (setting [7]) is given as “* (refers to percent inhibition from 6% to 64%)”. Besides, the IC50 in assay [4] and in assay [3] was 10 to 50 µM throughout.
